The text below walks through data of patent publication EP0107165A1, “Substituted 9H-8-oxo-pyrimido(2,1-f)purine-2,4-diones, process for their production and pharmaceutical compositions containing them” (SCHERING CORPORATION, priority 1982, dated 1984).

Molecules are shown by their SMILES.

In one series the test system is RPAR Synovitis. In words: Reversed Passive Arthus-Reaction (RPAR) Synovitis technique. The settings on record: dosage of 50 mpk, oral, split dose (half one hour before, half three hours after lesion induction); delta synovial weight about 17 hours after lesion induction; Lewis rat. The class given is in vivo, male Lewis rats. How it is done:
The anti-inflammatory potential of the compounds of the present invention may be determined by the Reversed Passive Arthus-Reaction (RPAR) Synovitis technique as set forth below using male Lewis rats (obtained from Charles River Breeding Laboratories) weighing 200-250 g. The potency of the compounds is determined using indo- methacin as the standard. On the basis of the test results, a dosage range of about 0.1 milligrams per kilogram of body weight per day to about 50 milligrams per kilogram of body weight per day in divided doses at about 4 hour intervals is recommended. For the preferred compounds of the invention tested, it is considered that the compounds are effectively non-toxic at the dose- rates indicated for treatment of inflammatory conditions. […]
The following morning (about 17 hours after lesion induction) the rat is killed and both knee joints are exposed. […] Differences in delta synovial weight between lesion controls and drug- treated rats are evaluated for statistical significance with an analysis of variance. Relative potencies are determined with a linear regression analysis. […]

Series [1] is described as follows: Ulcerogenicity test (oral administration). The class given is in vivo. The settings on record: dosages as high as 100mpk.

Regarding `CCCc1c(O)n(Cc2ccccc2)c2nc3c(c(=O)n(C)c(=O)n3C)n2c1=O` [A, 9-benzyl-1,3-dimethyl-8-hydroxy-7-n-propyl-9H-6-. oxo-pyrimido[2,1-f]purine-2,4-dione], the “percentage inhibition of inflammation (I)” value in the series on RPAR Synovitis is recorded as 46%. Also, the ulcerogenic result in series [1] was “not to be ulcerogenic”.
Consider `CCCCc1c(O)n(Cc2ccccc2)c2nc3c(c(=O)n(C)c(=O)n3C)n2c1=O` [B, 9-benzyl-1,3-dimethyl-8-hydroxy-7-(n-butyl)-9H-6-oxo-pyrimido[2,1-f]purine-2,4-dione], for which the “percentage inhibition of inflammation (I)” value in the series with RPAR Synovitis is 48%.
